Reference: article PMC4550478, “Metronidazole-triazole conjugates: Activity against Clostridium difficile and parasites” (European Journal of Medicinal Chemistry, 2015)
In brackets after ≈: the same amount, converted by molar mass. Like-named read-outs stand apart in the source and are kept apart here.

Key:
[1] = test system: C. difficile NAP1/027 CD26A54_R; experiment: MIC broth microdilution, metronidazole resistant C. difficile CD26A54_R; assay type: cell-based, Clostridium difficile; settings: for MIC: Clostridioides difficile
[2] = test system: C. difficile NAP1/027 CD26A54_S; experiment: MIC broth microdilution, C. difficile CD26A54_S; assay type: cell-based, Clostridium difficile; settings: for MIC: Clostridioides difficile
[3] = test system: C. difficile NAP1/027 M7404; experiment: MIC broth microdilution, C. difficile NAP1/027 M7404; assay type: cell-based, Clostridium difficile; settings: NAP1/027 (footnote d: M7404), MtzS, 24 h, median of at least n = 4; for MIC: Clostridioides difficile, NAP1/027M7404
Procedure: (§1) All compounds were tested for activity against a set of anaerobic C. difficile bacteria (630 ATCC BAA-1382, NAP1/027 M7404, NAP1/027 ATCC BAA-1803, VPI10463 ATCC 43255, CD26A54_S and CD26A54_R) and representative ESKAPE pathogens S. aureus (MRSA ATCC 43300), E. coli (ATCC 25922), K. pneumoniae (ATCC 700603), A. baumannii (ATCC 19606) and P. aeruginosa (ATCC 27853) using a standard broth microdilution assay. Selected compounds were tested for activity against H. pylori strains (26695, and clinical isolates MtzS 13/25, MtzR 98/285 and MtzR 13/61) using agar plate dilution, and for antimicrobial activity against […] Gram-positive bacterial strains: Enterococcus faecalis (VanA clinical isolate), Enterococcus faecium (MDR VanA ATCC 51559), Streptococcus pneumoniae (MDR ATCC 700677), S. aureus (MRSA ATCC 43300, MRSA clinical isolate, MRSA/DRSA clinical isolate, GISA NARSA NRS 1, GISA NARSA NRS 17, VRSA NARSA VRS1, VRSA NARSA VRS4 and VRSA NARSA VRS10) using broth microdilution. C. difficile strains were grown at 37 °C in a COY anaerobic chamber (5% H2, 10% CO2, 85% N2). H. pylori strains were grown at 37 °C under a microaerobic atmosphere (5% O2, 10% CO2). All facultative anaerobic bacteria were grown at 37 °C with normal atmospheric oxygen levels. All experiments were performed in duplicate with metronidazole, vancomycin, linezolid or colistin as positive controls for relevant strains (see Table 1). Positive growth control of bacteria and DMSO as well as a negative control of only media were included for every plate. Full assay details are provided in the supplementary information.
(§2) C. difficile ATCC BAA-1382, ATCC BAA-1803, ATCC 43255 and M7404 heat shocked spore stocks (10 µL) were transferred into the anaerobic chamber and 10 µL streaked onto pre-reduced (at least 2.5 hr in anaerobic chamber) BHIS agar plates supplemented with 0.1% w/v sodium taurocholate (BHIS(TA)). Plates were incubated for 24 hours prior to assay to give colonies of size 1-3mm diameter with characteristic uneven borders.
(§3) The minimum inhibition concentration was determined according to the CLSI Methods with modifications in broth and inoculum for C. difficile according to Babakhani et al.^7,8 Briefly, compounds were prepared to 20X final concentration in 100% water, 60% DMSO and 40% water or 60% DMSO and 40% media. The compounds along with standard antibiotics were serially diluted two-fold across the wells of 96-well non-binding surface plates (Non binding surface, Corning). The plates were placed in the anaerobic chamber overnight to reduce. C. difficile bacteria from BHIS(TA) agar plates were cultured anaerobically in BHIS at 37 °C overnight. A sample of culture was then diluted 40-fold in BHIS broth and incubated at 37 °C for approximately 4.5 hrs. The resultant mid-log phase culture (OD600= 0.5-0.6) was diluted to the final concentration of ~1×10^6 CFU/mL, then 50 µL was added to each well of the compound-containing 96-well plates. This gave final cell concentration of 5×10^5 CFU/mL, final volume 100 µL and 3% maximum DMSO concentration. Compound concentration was typically from 64 to 0.03 µg/mL. An antibiotic standard was included on each 96 well plate as well as a positive growth control (no compound) and sterility control (no bacteria). All the plates were covered and incubated at 37 °C for 24 h. MICs were the lowest concentration showing no visible growth.

[4] = test system: G. lamblia WB trophozoites; experiment: ATP-bioluminescence growth and survival assay, G. lamblia WB; assay type: cell-based, Giardia lamblia; settings: MtzS, 48 h, anaerobic, n = 3
Procedure: Compounds were tested for antiparasitic activity against E. histolytica (HM1:1MSS strain) and G. lamblia (WB, BRIS/87/HEPU/713 (713), BRIS/83/HEPU/106 (106) and the metronidazole resistant syngeneic line 713-M3 [[15,16]]) using an ATP-bioluminescence based screen for cell growth and survival [[17,18]]. Assay plates were inoculated with trophozoites (5 × 10^3 parasites/well) and incubated in the GasPak™ EZ Anaerobe Gas Generating Pouch Systems (VWR, West Chester, PA) to maintain anaerobic conditions throughout the incubation period. The assays were performed in triplicate using the CellTiter-Glo Luminescent Cell Viability Assay. Metronidazole was used as a positive control.
Trophozoites of E. histolytica strain HM1:IMSS and G. lamblia strains WB, BRIS/87/HEPU/713 (713),^10 BRIS/83/HEPU/106 (106)^11 and the metronidazole resistant syngenic line 713-M3^10,11 were axenically maintained in TYI-S-33 medium supplemented with penicillin (100 U/ml), streptomycin (100 µg/ml).^12 E. histolytica and G. lamblia trophozoites were counted using a particle counter (Beckman Coulter, Fullerton, CA). All experiments were performed using trophozoites harvested during the logarithmic phase of growth.
A three-fold serial dilution was then performed yielding a concentration range 0.25-625 µM. From this dilution plate, 4 µL were transferred into the 96-well screen plates followed by addition of 96 µL of trophozoites (5,000 parasites) to yield a final 8-point concentration range spanning 0.01- 25 µM. Assay plates were incubated for 48 h at 37 °C in the GasPak^TM EZ Anaerobe Gas Generating Pouch Systems (VWR, West Chester, PA) to maintain anaerobic condition throughout the incubation period. The assays were performed in triplicate using the CellTiter-Glo Luminescent Cell Viability Assay.^13

[5] = test system: C. difficile 630 ATCC BAA-1382; experiment: MIC broth microdilution, C. difficile 630; assay type: cell-based, Clostridium difficile; settings: 24 h, median of at least n = 4; for MIC: Clostridioides difficile, ATCCBAA1382, MtzS
Procedure: as §1, §2, §3

[6] = 24 hr incubation, read-out: MIC C. difficile NAP1/027 CD26A54_R 24 hr
[7] = CD26A54_R, MtzR, 48 h growth, BHIS broth, n = 8, read-out: MIC C. difficile NAP1/027 CD26A54_R 48 h
[8] = 24 hr incubation, read-out: MIC C. difficile NAP1/027 CD26A54_S 24 hr
[9] = CD26A54_S, MtzS (intermediary), 48 h growth, read-out: MIC C. difficile NAP1/027 CD26A54_S 48 h

Structure (SMILES) | MIC [1, 6] [µg/mL] | MIC [1, 7] [µg/mL] | MIC [2, 8] [µg/mL] | MIC [2, 9] [µg/mL] | MIC [3] [µg/mL] | EC50 ([4]; Giardia duodenalis) [µM] | MIC [5] [µg/mL] | MIC C. difficile NAP1/027 CD26A54_R 24 hr ([1]; 24 hr incubation) [µg/mL] | MIC C. difficile NAP1/027 CD26A54_R 48 h ([1]; CD26A54_R, MtzR, 48 h growth, BHIS broth, n = 8) [µg/mL] | MIC C. difficile NAP1/027 CD26A54_S 24 hr ([2]; 24 hr incubation) [µg/mL] | MIC C. difficile NAP1/027 CD26A54_S 48 h ([2]; CD26A54_S, MtzS (intermediary), 48 h growth) [µg/mL] | MIC C. difficile NAP1/027 (footnote d) [3] [µg/mL] | EC50 [4] [µM] | MIC C. difficile 630 ([5]; MtzS) [µg/mL]
Cc1ncc([N+](=O)[O-])n1CCn1cc(Cn2cccn2)nn1 [Compound 4g, 1-(2-(2-methyl-5-nitro-1H-imidazol-1-yl)ethyl)-4-((1H-pyrazol-1-yl)methyl)-1H-1,2,3-triazole] | 4 (≈ 13.2 µM) | 4 (≈ 13.2 µM) | 2 (≈ 6.62 µM) | 2 (≈ 6.62 µM) | 1 (≈ 3.31 µM) | 4.9 | 1 (≈ 3.31 µM) | – | – | – | – | – | – | –
Cc1ncc([N+](=O)[O-])n1CCn1cc(-c2ncccn2)nn1 [Compound 4j, 1-(2-(2-methyl-5-nitro-1H-imidazol-1-yl)ethyl)-4-(2-pyrimidinyl)-1H-1,2,3-triazole] | 4 (≈ 13.3 µM) | 4 (≈ 13.3 µM) | 2 (≈ 6.66 µM) | 2 to 4 (≈ 6.66 to 13.3 µM) | 2 (≈ 6.66 µM) | 1.7 | 2 (≈ 6.66 µM) | – | – | – | – | – | – | –
Cc1ncc([N+](=O)[O-])n1CCn1cc(-c2cncnc2)nn1 [Compound 4i, 1-(2-(2-methyl-5-nitro-1H-imidazol-1-yl)ethyl)-4-(5-pyrimidinyl)-1H-1,2,3-triazole] | 2 (≈ 6.66 µM) | 4 (≈ 13.3 µM) | 1 (≈ 3.33 µM) | 1 (≈ 3.33 µM) | 1 (≈ 3.33 µM) | 3.3 | 1 (≈ 3.33 µM) | – | – | – | – | – | – | –
Cc1ncc([N+](=O)[O-])n1CCn1cc(CO)nn1 [Compound 4q, 1-(2-(2-methyl-5-nitro-1H-imidazol-1-yl)ethyl)-4-(hydroxymethyl)-1H-1,2,3-triazole] | 16 (≈ 63.4 µM) | 16 (≈ 63.4 µM) | 16 (≈ 63.4 µM) | 16 to 32 (≈ 63.4 to 127 µM) | 16 (≈ 63.4 µM) | > 25 | 16 (≈ 63.4 µM) | – | – | – | – | – | – | –
Cc1ncc([N+](=O)[O-])n1CCn1cc(CCC(=O)O)nn1 [Compound 4r, sodium 1-(2-(2-methyl-5-nitro-1H-imidazol-1-yl)ethyl)-4-(carboxyethyl)-1H-1,2,3-triazole] | > 64 | > 64 | > 64 | > 64 | > 64 | > 25 | > 64 | – | – | – | – | – | – | –
Cc1ncc([N+](=O)[O-])n1CCn1cc(CCO)nn1 [Compound 4p, 1-(2-(2-methyl-5-nitro-1H-imidazol-1-yl)ethyl)-4-(2-hydroxyethyl)-1H-1,2,3-triazole] | 8 to 16 (≈ 30 to 60.1 µM) | 16 (≈ 60.1 µM) | 8 (≈ 30 µM) | 8 (≈ 30 µM) | 8 (≈ 30 µM) | > 25 | 8 (≈ 30 µM) | – | – | – | – | – | – | –
Cc1ncc([N+](=O)[O-])n1CCn1cc(CN)nn1.O=C(O)C(F)(F)F [Compound 4t, 1-(2-(2-methyl-5-nitro-1H-imidazol-1-yl)ethyl)-4-(aminomethyl)-1H-1,2,3-triazole trifluoroacetate salt] | > 64 | > 64 | > 64 | > 64 | > 64 | > 25 | > 64 | – | – | – | – | – | – | –
Cc1ncc([N+](=O)[O-])n1CCn1cc(C(=O)O)nn1 [Compound 4s, 1-(2-(2-methyl-5-nitro-1H-imidazol-1-yl)ethyl)-4-(carboxy)-1H-1,2,3-triazole] | > 64 | > 64 | > 64 | > 64 | 64 (≈ 240 µM) | > 25 | 64 (≈ 240 µM) | – | – | – | – | – | – | –
Cc1ncc([N+](=O)[O-])n1CCN=[N+]=[N-] [Compound 3, 1-(2-azidoethyl)-2-methyl-5-nitro-1H-imidazole] | – | – | – | – | – | – | – | 4 (≈ 20.4 µM) | 8 (≈ 40.8 µM) | 2 (≈ 10.2 µM) | 2 (≈ 10.2 µM) | 0.5 (≈ 2.55 µM) | 1.5 | 1 (≈ 5.1 µM)
Cc1ncc([N+](=O)[O-])n1CCn1cc(CN2CCS(=O)(=O)CC2)nn1 [Compound 4o, 1-(2-(2-methyl-5-nitro-1H-imidazol-1-yl)ethyl)-4-((1,1-dioxothiomorpholin-4-yl)methyl)-1H-1,2,3-triazole] | > 64 | > 64 | > 64 | > 64 | > 64 | > 25 | > 64 | – | – | – | – | – | – | –
